How the values were obtained:
[1] = biological target: ACVR1B (Homo sapiens (Human), UniProt P36896); assay: KINOMEscan scanMAX; type: binding; settings: 2000 nM; read-out: Percent Control
[2] = biological target: AMPK-alpha1 (PRKAA1) (Homo sapiens (Human), UniProt Q13131); assay: KINOMEscan scanMAX; type: binding; settings: 2000 nM; read-out: Percent Control
[3] = biological target: ANKK1 (Homo sapiens (Human), UniProt Q8NFD2); assay: KINOMEscan scanMAX; type: binding; settings: 2000 nM; read-out: Percent Control
[4] = biological target: BRAF (Homo sapiens (Human), UniProt P15056); assay: KINOMEscan scanMAX; type: binding; settings: 2000 nM; read-out: Percent Control
[5] = biological target: BRAF(V600E) (Homo sapiens (Human), UniProt P15056, V600E); assay: KINOMEscan scanMAX; type: binding; settings: 2000 nM; read-out: Percent Control
[6] = biological target: CDKL3 (Homo sapiens (Human), UniProt Q8IVW4); assay: KINOMEscan scanMAX; type: binding; settings: 2000 nM; read-out: Percent Control
[7] = biological target: CIT (Homo sapiens (Human), UniProt O14578); assay: KINOMEscan scanMAX; type: binding; settings: 2000 nM; read-out: Percent Control
[8] = biological target: DMPK (Homo sapiens (Human), UniProt Q09013); assay: KINOMEscan scanMAX; type: binding; settings: 2000 nM; read-out: Percent Control
[9] = biological target: EGFR(G719S) (Homo sapiens (Human), UniProt P00533, G719S); assay: KINOMEscan scanMAX; type: binding; settings: 2000 nM; read-out: Percent Control
[10] = biological target: EPHA2 (Homo sapiens (Human), UniProt P29317); assay: KINOMEscan scanMAX; type: binding; settings: 2000 nM; read-out: Percent Control
[11] = biological target: EPHA3 (Homo sapiens (Human), UniProt P29320); assay: KINOMEscan scanMAX; type: binding; settings: 2000 nM; read-out: Percent Control
[12] = biological target: EPHA5 (Homo sapiens (Human), UniProt P54756); assay: KINOMEscan scanMAX; type: binding; settings: 2000 nM; read-out: Percent Control
[13] = biological target: ERK5 (MAPK7) (Homo sapiens (Human), UniProt Q13164); assay: KINOMEscan scanMAX; type: binding; settings: 2000 nM; read-out: Percent Control
[14] = biological target: FLT3(N841I) (Homo sapiens (Human), UniProt P36888, N841I); assay: KINOMEscan scanMAX; type: binding; settings: 2000 nM; read-out: Percent Control
[15] = biological target: GRK4 (Homo sapiens (Human), UniProt P32298); assay: KINOMEscan scanMAX; type: binding; settings: 2000 nM; read-out: Percent Control
[16] = biological target: GSK3B (Homo sapiens (Human), UniProt P49841); assay: KINOMEscan scanMAX; type: binding; settings: 2000 nM; read-out: Percent Control
[17] = biological target: HIPK3 (Homo sapiens (Human), UniProt Q9H422); assay: KINOMEscan scanMAX; type: binding; settings: 2000 nM; read-out: Percent Control
[18] = biological target: JAK1(JH2domain-pseudokinase) (Homo sapiens (Human), UniProt P23458); assay: KINOMEscan scanMAX; type: binding; settings: 2000 nM; read-out: Percent Control
[19] = biological target: MAP3K2 (Homo sapiens (Human), UniProt Q9Y2U5); assay: KINOMEscan scanMAX; type: binding; settings: 2000 nM; read-out: Percent Control
[20] = biological target: MAP3K3 (Homo sapiens (Human), UniProt Q99759); assay: KINOMEscan scanMAX; type: binding; settings: 2000 nM; read-out: Percent Control
[21] = biological target: MARK2 (Homo sapiens (Human), UniProt Q7KZI7); assay: KINOMEscan scanMAX; type: binding; settings: 2000 nM; read-out: Percent Control
[22] = biological target: MEK3 (MAP2K3) (Homo sapiens (Human), UniProt P46734); assay: KINOMEscan scanMAX; type: binding; settings: 2000 nM; read-out: Percent Control
[23] = biological target: MRCKB (CDC42BPB) (Homo sapiens (Human), UniProt Q9Y5S2); assay: KINOMEscan scanMAX; type: binding; settings: 2000 nM; read-out: Percent Control
[24] = biological target: MYLK4 (Homo sapiens (Human), UniProt Q86YV6); assay: KINOMEscan scanMAX; type: binding; settings: 2000 nM; read-out: Percent Control
[25] = biological target: NEK10 (Homo sapiens (Human), UniProt Q6ZWH5); assay: KINOMEscan scanMAX; type: binding; settings: 2000 nM; read-out: Percent Control
[26] = biological target: NEK6 (Homo sapiens (Human), UniProt Q9HC98); assay: KINOMEscan scanMAX; type: binding; settings: 2000 nM; read-out: Percent Control
[27] = biological target: PCTK1 (CDK16) (Homo sapiens (Human), UniProt Q00536); assay: KINOMEscan scanMAX; type: binding; settings: 2000 nM; read-out: Percent Control
[28] = biological target: PHKG1 (Homo sapiens (Human), UniProt Q16816); assay: KINOMEscan scanMAX; type: binding; settings: 2000 nM; read-out: Percent Control
[29] = biological target: RIOK2 (Homo sapiens (Human), UniProt Q9BVS4); assay: KINOMEscan scanMAX; type: binding; settings: 2000 nM; read-out: Percent Control
[30] = biological target: RPS6KA4(Kin.Dom.2-C-terminal) (Homo sapiens (Human), UniProt O75676); assay: KINOMEscan scanMAX; type: binding; settings: 2000 nM; read-out: Percent Control
[31] = biological target: RSK4(Kin.Dom.1-N-terminal) (RPS6KA6) (Homo sapiens (Human), UniProt Q9UK32); assay: KINOMEscan scanMAX; type: binding; settings: 2000 nM; read-out: Percent Control
[32] = biological target: TXK (Homo sapiens (Human), UniProt P42681); assay: KINOMEscan scanMAX; type: binding; settings: 2000 nM; read-out: Percent Control
[33] = biological target: TYRO3 (Homo sapiens (Human), UniProt Q06418); assay: KINOMEscan scanMAX; type: binding; settings: 2000 nM; read-out: Percent Control
[34] = system: C4-2 xenografts; assay: PSA mRNA in C4-2 xenografts in mice; type: in vivo; settings: 40 mg/kg orally daily for 4 days, male NcrNU mice
Procedure: (§1) CDK8/19 inhibition decreases the expression of certain androgen-receptor (AR) inducible genes including PSA, the most common marker of prostate cancer, and the growth of castration-refractory prostate cancers (CRPC). The in vivo effects of Senexin C on PSA expression by C4-2 cells were analyzed after treatment of male NcrNU mice bearing C4-2 xenografts (grouped based on tumor sizes) for 4 days at 40 mg/kg administered orally daily.

[35] = Serum and tumor PK at study endpoint, C4-2 xenografts; type: in vivo, mice; settings: 6-7 hours post last dose, 40 mg/kg orally daily for 4 days
Procedure: as §1

[36] = biological target: HASPIN (Homo sapiens (Human), UniProt Q8TF76); assay: DiscoverX Kd assay
[37] = biological target: MAP4K2 (Homo sapiens (Human), UniProt Q12851); assay: DiscoverX Kd assay
Chain of MAP4K2 (Q12851 whole entry): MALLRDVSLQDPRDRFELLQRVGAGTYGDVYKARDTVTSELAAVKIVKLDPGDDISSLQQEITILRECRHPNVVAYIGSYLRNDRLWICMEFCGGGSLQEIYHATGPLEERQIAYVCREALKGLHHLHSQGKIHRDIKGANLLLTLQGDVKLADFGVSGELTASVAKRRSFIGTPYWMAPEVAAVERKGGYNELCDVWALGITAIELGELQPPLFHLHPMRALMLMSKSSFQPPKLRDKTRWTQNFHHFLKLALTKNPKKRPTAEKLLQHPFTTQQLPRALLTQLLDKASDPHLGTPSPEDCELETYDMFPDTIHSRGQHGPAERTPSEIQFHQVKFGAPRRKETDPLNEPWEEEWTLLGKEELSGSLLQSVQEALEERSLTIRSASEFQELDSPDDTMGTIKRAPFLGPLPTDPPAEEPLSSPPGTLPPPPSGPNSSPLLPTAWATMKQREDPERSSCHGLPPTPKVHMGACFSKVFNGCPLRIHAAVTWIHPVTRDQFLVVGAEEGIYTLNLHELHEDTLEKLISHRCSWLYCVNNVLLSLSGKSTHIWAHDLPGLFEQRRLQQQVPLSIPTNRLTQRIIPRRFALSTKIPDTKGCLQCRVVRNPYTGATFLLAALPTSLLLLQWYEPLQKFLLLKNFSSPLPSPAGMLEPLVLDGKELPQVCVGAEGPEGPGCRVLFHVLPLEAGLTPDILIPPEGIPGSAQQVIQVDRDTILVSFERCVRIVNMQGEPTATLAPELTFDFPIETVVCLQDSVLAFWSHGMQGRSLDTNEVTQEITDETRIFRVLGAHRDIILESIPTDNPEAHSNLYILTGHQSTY

Chain of BRAF (P15056 whole entry): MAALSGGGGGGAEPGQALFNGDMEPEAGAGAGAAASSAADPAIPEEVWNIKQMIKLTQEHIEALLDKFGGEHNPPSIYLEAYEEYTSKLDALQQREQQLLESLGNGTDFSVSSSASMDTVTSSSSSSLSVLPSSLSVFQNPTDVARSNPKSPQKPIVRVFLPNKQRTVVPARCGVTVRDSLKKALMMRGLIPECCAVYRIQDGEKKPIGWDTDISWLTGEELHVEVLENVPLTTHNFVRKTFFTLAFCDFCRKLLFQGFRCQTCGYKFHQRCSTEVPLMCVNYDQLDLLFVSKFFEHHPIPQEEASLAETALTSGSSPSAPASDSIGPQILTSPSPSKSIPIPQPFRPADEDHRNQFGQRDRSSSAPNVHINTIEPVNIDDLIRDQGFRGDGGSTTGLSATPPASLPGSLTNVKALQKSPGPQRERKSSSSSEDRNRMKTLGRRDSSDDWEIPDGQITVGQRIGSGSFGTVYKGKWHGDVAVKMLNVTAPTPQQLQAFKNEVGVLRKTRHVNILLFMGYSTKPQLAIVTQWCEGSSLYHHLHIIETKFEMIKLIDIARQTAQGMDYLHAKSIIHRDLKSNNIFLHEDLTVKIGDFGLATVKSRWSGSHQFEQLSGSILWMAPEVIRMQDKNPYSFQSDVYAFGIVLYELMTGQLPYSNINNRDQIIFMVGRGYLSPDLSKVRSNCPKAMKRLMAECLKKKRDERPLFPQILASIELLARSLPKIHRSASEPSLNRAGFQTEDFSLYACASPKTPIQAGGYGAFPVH
Chain of RSK4(Kin.Dom.1-N-terminal) (RPS6KA6) (Q9UK32 73-330): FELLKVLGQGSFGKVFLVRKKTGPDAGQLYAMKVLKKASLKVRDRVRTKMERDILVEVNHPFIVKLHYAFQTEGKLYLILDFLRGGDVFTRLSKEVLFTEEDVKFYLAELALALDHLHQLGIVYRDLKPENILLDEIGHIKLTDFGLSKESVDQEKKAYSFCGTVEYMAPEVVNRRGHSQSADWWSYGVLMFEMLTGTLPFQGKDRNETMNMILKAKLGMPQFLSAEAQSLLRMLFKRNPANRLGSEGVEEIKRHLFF
Chain of TXK (P42681 whole entry): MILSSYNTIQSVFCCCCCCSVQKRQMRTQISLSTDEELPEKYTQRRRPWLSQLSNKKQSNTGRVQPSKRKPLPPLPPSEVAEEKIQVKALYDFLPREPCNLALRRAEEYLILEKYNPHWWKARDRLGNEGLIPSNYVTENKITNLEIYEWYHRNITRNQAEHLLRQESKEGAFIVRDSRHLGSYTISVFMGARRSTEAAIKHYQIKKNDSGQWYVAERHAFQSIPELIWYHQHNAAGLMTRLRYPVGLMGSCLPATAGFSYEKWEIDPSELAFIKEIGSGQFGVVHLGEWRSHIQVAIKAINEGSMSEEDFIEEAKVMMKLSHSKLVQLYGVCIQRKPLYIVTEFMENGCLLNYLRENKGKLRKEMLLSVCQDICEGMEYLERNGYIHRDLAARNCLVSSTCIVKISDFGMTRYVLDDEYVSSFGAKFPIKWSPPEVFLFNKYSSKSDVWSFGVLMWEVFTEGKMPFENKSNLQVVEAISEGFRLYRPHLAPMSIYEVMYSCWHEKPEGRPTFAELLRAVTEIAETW
Chain of HASPIN (Q8TF76 whole entry): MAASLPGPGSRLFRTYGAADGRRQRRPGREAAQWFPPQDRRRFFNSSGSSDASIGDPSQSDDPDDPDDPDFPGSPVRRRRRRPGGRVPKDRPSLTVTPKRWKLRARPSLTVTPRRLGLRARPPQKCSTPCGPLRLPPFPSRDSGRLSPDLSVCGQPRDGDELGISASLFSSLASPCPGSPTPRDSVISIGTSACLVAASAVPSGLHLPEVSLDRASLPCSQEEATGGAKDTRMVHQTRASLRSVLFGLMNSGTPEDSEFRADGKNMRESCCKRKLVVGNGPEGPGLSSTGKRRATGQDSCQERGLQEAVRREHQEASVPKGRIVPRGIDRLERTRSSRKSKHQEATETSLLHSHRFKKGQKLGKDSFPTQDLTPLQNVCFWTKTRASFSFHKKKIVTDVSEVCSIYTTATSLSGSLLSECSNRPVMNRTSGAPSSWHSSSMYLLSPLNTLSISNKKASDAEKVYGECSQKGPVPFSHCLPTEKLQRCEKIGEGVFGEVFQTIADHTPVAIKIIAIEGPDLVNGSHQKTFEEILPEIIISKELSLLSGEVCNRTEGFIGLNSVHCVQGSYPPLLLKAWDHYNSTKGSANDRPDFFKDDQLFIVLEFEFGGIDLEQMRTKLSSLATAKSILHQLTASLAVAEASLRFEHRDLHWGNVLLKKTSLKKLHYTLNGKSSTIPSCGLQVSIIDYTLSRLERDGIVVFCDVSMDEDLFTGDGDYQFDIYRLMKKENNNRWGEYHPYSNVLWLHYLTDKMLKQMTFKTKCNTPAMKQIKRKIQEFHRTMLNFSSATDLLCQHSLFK
Chain of EGFR(G719S) (P00533 25-1210 G719S): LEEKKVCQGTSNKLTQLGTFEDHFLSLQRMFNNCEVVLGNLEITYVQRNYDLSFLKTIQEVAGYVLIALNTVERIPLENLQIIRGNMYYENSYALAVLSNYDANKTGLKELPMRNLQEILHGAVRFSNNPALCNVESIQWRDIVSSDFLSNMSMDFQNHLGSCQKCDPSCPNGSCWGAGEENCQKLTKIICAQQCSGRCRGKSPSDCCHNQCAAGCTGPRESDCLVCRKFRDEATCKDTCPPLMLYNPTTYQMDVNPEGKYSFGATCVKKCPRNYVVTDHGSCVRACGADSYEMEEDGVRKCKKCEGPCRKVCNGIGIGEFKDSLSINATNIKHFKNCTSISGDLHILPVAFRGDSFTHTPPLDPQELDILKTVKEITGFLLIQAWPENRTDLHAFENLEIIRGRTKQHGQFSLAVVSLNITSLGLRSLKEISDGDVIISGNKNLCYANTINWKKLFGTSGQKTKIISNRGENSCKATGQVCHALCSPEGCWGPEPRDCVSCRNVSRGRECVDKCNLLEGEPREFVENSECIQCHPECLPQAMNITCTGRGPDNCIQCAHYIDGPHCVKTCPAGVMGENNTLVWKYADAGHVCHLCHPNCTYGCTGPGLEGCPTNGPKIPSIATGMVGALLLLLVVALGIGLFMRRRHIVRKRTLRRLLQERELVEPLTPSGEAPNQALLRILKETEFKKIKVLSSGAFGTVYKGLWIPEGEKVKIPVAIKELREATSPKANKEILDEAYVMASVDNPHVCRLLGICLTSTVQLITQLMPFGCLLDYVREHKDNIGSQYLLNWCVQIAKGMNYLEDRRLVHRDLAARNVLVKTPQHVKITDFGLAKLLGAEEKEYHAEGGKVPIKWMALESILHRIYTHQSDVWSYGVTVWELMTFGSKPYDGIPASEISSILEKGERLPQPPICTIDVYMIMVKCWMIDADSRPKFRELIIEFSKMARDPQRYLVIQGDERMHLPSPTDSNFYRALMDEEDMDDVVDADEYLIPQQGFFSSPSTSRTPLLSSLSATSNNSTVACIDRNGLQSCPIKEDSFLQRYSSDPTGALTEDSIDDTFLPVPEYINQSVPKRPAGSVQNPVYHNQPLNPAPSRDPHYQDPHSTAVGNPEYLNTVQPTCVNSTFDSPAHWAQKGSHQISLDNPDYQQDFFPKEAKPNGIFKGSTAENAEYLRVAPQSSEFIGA
Chain of DMPK (Q09013 whole entry): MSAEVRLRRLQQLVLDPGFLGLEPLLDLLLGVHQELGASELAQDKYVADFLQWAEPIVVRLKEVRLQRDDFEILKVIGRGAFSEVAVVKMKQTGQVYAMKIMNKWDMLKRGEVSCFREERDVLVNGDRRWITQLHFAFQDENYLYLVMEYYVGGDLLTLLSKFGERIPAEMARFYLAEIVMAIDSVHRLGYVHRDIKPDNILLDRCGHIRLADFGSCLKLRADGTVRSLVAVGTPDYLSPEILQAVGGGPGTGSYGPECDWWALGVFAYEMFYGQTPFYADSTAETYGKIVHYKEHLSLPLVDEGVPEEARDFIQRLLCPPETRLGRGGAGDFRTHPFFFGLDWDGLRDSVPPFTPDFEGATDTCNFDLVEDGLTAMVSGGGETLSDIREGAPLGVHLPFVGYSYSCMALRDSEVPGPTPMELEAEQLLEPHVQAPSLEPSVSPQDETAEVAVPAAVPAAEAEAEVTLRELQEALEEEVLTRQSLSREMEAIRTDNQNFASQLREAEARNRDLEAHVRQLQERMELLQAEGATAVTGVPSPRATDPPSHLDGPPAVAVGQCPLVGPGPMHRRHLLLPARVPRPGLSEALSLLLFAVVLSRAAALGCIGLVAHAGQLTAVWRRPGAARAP
Chain of BRAF(V600E) (P15056 whole entry V600E): as the sequence (P15056 whole entry) above, with V600E counted along it

## CN1CCN(C(=O)c2ccc3cc(CCNc4ccnc5ccc(C#N)cc45)ccc3c2)CC1 [compound 6148, 4-((2-(6-(4-methylpiperazine-1-carbonyl)naphthalen-2-yl)ethyl)amino)quinoline-6-carbonitrile]
[1]
  remaining binding at 2 µM: 92%
[2]
  remaining binding at 2 µM: 94%
[3]
  remaining binding at 2 µM: 69%
[4]
  remaining binding at 2 µM: 84%
[5]
  remaining binding at 2 µM: 89%
[6]
  remaining binding at 2 µM: 87%
[7]
  remaining binding at 2 µM: 48%
[8]
  remaining binding at 2 µM: 98%
[9]
  remaining binding at 2 µM: 100%
[10]
  remaining binding at 2 µM: 100%
[11]
  remaining binding at 2 µM: 100%
[12]
  remaining binding at 2 µM: 97%
[13]
  remaining binding at 2 µM: 94%
[14]
  remaining binding at 2 µM: 100%
[15]
  remaining binding at 2 µM: 100%
[16]
  remaining binding at 2 µM: 67%
[17]
  remaining binding at 2 µM: 52%
[18]
  remaining binding at 2 µM: 58%
[19]
  remaining binding at 2 µM: 68%
[20]
  remaining binding at 2 µM: 83%
[21]
  remaining binding at 2 µM: 100%
[22]
  remaining binding at 2 µM: 87%
[23]
  remaining binding at 2 µM: 100%
[24]
  remaining binding at 2 µM: 98%
[25]
  remaining binding at 2 µM: 41%
[26]
  remaining binding at 2 µM: 93%
[27]
  remaining binding at 2 µM: 68%
[28]
  remaining binding at 2 µM: 95%
[29]
  remaining binding at 2 µM: 64%
[30]
  remaining binding at 2 µM: 62%
[31]
  remaining binding at 2 µM: 60%
[32]
  remaining binding at 2 µM: 94%
[33]
  remaining binding at 2 µM: 77%
[34]
  PSA mRNA levels in the tumor: strongly decreased
[35]
  Drug concentration in tumor tissues vs serum: higher Senexin C drug concentration in tumor tissues
[36]
  Kd: 1000 nM
[37]
  Kd: 940 nM
